Reference: patent publication US5620997A, “Isothiazolones” (Warner-Lambert Company, priority 1995, dated 1997)

Target: T1, rabbit reticulocyte 15-LO (Oryctolagus cuniculus, UniProt P12530)
T1 construct: rabbit reticulocyte 15-LO; from tissue; host or cells: rabbit reticulocytes
T1 sequence (P12530 1-663): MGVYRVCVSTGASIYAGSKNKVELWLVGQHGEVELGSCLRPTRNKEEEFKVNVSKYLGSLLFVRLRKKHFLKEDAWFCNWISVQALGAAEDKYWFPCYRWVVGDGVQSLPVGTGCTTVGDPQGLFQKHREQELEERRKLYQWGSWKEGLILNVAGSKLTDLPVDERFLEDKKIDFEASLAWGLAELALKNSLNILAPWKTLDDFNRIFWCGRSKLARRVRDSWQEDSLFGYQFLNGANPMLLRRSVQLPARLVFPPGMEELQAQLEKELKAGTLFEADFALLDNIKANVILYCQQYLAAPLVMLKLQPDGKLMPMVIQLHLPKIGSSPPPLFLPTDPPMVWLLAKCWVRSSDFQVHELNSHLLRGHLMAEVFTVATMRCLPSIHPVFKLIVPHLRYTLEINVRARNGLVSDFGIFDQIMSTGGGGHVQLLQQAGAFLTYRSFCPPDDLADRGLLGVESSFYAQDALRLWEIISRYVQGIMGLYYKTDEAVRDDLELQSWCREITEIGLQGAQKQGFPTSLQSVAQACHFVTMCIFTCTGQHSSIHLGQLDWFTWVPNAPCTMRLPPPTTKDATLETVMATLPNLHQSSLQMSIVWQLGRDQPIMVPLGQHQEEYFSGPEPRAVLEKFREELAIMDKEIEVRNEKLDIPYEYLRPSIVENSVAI
Assay: Colorimetric Assay of 15-LO Inhibition
Type: biochemical
Details: colorimetric method
Experimental: The isothiazolones of Formula I are also effective for treating inflammation and atherosclerosis. A characteristic feature of atherosclerosis is the accumulation of cholesteryl ester engorged from foam cells. Foam cells are derived from circulating monocytes which invade artery walls in response to hypercholesterolemia, and mature into tissue macrophages. […] Specifically, representative compounds were evaluated by the methods described by Auerbach, et al., Analytical Biochemistry, 1992;201:375-380. Two in vitro assays were utilized, both utilizing rabbit reticulocyte 15-LO, and linoleic acid as substrate, to enzymatically produce a peroxide oxidation product known as 13(S)-HPODE. N-Benzoyl leucomethylene blue was utilized as a colorimetric reagent for detection and quantification of the peroxide formation. Also, HPLC was utilized to quantify the oxidation following incubation at 4° C. for 10 minutes.
Table 3 gives the concentration of compound required to inhibit 50% of the activity of 15-LO (IC50) when measured by the HPLC method of Auerbach, et al. Table 4 gives the percent inhibition of 15-LO activity when evaluated by the colorimetric method.

SMILES	inhibition at 10 µM [%]
COc1ccc(-c2ccc3c(=O)n(CCN(C)C)sc3n2)cc1OC [Example 108]	65
CN(C)CCn1sc2nc3ccccc3cc2c1=O [Example 109]	22
